According to ChEMBL document CHEMBL3826966, “A chromatography-free isolation of rohitukine from leaves of Dysoxylum binectariferum: Evaluation for in vitro cytotoxicity, Cdk inhibition and physicochemical properties” (Bioorg Med Chem Lett, 2016):

How the values were obtained:
[1] = target: Serine/threonine-protein kinase SIK3 (Homo sapiens) (UniProt Q9Y2K2); assay: Inhibition of human SIK3 (2 to 1369 residues) assessed as remaining enzyme activity at 50 uM after 30 mins by 33P-ATP filter-binding assay
[2] = target: Insulin receptor (Homo sapiens) (UniProt P06213); assay: Inhibition of human IR (1001 to 1382 residues) assessed as remaining enzyme activity at 50 uM after 30 mins by 33P-ATP filter-binding assay
Insulin receptor (Homo sapiens), sequence (P06213 28-758 limits assumed): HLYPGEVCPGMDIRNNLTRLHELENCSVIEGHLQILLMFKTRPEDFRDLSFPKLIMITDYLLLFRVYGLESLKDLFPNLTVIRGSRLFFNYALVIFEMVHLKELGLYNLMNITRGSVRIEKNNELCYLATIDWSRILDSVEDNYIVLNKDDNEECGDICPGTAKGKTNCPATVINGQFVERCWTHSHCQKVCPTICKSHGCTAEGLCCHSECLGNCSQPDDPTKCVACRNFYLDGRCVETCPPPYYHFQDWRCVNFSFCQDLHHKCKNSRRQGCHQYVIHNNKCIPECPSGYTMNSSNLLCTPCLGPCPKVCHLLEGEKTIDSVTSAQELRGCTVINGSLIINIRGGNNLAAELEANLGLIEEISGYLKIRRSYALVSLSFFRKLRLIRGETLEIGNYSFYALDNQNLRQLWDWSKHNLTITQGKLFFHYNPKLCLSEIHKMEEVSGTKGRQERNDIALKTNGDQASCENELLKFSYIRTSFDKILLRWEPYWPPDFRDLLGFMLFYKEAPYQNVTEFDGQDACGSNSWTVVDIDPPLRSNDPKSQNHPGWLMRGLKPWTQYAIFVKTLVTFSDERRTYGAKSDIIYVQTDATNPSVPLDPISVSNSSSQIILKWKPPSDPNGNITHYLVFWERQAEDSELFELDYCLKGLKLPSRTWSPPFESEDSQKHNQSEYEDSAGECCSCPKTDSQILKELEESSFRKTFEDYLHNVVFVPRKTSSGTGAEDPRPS
Insulin receptor (Homo sapiens), sequence (P06213 763-1382 limits assumed): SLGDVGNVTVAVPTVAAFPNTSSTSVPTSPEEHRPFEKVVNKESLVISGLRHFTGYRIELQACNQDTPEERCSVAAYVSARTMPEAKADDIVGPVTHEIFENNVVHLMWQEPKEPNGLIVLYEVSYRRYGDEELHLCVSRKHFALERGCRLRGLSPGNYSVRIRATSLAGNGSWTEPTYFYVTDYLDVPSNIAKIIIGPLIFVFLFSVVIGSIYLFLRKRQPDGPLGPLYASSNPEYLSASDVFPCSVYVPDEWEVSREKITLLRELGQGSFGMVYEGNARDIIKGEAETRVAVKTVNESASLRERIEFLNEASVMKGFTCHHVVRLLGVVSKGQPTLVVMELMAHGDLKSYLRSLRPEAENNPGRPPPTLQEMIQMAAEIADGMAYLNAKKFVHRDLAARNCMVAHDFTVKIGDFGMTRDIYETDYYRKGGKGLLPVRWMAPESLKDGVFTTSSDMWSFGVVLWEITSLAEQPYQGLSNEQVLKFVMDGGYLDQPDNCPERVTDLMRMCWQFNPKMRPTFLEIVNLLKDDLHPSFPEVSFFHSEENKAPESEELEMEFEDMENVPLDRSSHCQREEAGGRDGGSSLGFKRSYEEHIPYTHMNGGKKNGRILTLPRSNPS

[3] = target: MAP kinase-activated protein kinase 5 (Homo sapiens) (UniProt Q8IW41); assay: Inhibition of human PRAK (1 to 471 residues) assessed as remaining enzyme activity at 50 uM after 30 mins by 33P-ATP filter-binding assay
[4] = target: Serine/threonine-protein kinase Nek2 (Homo sapiens) (UniProt P51955); assay: Inhibition of human NEK2a (1 to 445 residues) assessed as remaining enzyme activity at 50 uM after 30 mins by 33P-ATP filter-binding assay
Serine/threonine-protein kinase Nek2 (Homo sapiens), sequence (P51955 whole entry, the tested form may be a part): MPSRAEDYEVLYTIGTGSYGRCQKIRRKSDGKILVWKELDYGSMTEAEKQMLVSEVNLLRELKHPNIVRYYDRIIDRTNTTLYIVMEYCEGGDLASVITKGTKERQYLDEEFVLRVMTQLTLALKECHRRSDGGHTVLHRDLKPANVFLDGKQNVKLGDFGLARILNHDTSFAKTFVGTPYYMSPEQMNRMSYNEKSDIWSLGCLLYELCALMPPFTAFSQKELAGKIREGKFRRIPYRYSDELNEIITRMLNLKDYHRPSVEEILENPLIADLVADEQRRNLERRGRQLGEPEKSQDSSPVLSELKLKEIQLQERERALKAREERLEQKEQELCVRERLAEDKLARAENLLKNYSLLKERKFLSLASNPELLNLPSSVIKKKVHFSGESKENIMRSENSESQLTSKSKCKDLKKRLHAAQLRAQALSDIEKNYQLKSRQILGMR

[5] = Stability in pH 6.8 buffer at 120 ug/ml after 8 hrs by RP-HPLC analysis; format: physicochemical; details: pH 6.8, 8 h
[6] = target: Serine/threonine-protein kinase TAO1 (Homo sapiens) (UniProt Q7L7X3); assay: Inhibition of human TAO1 (1 to 356 residues) assessed as remaining enzyme activity at 50 uM after 30 mins by 33P-ATP filter-binding assay
MAP3K9 = assay: Inhibition of human MLK1 (132 to 413 residues) assessed as remaining enzyme activity at 50 uM after 30 mins by 33P-ATP filter-binding assay
[7] = Cytotoxicity against human HL60 cells assessed as cell growth inhibition after 48 hrs by MTT assay; format: functional; details: HL-60, 48 h
[8] = target: MAP kinase-interacting serine/threonine-protein kinase 1 (Homo sapiens) (UniProt Q9BUB5); assay: Inhibition of human MNK1 (2 to 424 residues) assessed as remaining enzyme activity at 50 uM after 30 mins by 33P-ATP filter-binding assay
[9] = target: Dual specificity tyrosine-phosphorylation-regulated kinase 2 (Homo sapiens) (UniProt Q92630); assay: Inhibition of human DYRK2 (3 to 528 residues) assessed as remaining enzyme activity at 50 uM after 30 mins by 33P-ATP filter-binding assay
[10] = target: Tyrosine-protein kinase CSK (Homo sapiens) (UniProt P41240); assay: Inhibition of human CSK (1 to 450 residues) assessed as remaining enzyme activity at 50 uM after 30 mins by 33P-ATP filter-binding assay
Tyrosine-protein kinase CSK (Homo sapiens), sequence (P41240 2-450 limits assumed): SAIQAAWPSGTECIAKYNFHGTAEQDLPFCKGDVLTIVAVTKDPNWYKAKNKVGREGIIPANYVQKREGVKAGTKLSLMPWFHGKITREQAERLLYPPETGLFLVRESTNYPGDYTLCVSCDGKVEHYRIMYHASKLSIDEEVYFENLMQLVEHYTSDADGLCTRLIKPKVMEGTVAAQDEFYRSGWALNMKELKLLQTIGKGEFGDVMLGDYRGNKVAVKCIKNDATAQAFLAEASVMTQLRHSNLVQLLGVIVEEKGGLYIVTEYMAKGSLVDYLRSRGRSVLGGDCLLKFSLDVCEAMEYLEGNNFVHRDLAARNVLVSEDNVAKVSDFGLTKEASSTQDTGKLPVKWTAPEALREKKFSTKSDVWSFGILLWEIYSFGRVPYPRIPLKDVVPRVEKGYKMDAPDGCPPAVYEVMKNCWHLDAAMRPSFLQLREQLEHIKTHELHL

[11] = target: Mitogen-activated protein kinase 1 (Homo sapiens) (UniProt P28482); assay: Inhibition of human ERK2 (2 to 360 residues) assessed as remaining enzyme activity at 50 uM after 30 mins by 33P-ATP filter-binding assay
Mitogen-activated protein kinase 1 (Homo sapiens), sequence (P28482 whole entry, the tested form may be a part): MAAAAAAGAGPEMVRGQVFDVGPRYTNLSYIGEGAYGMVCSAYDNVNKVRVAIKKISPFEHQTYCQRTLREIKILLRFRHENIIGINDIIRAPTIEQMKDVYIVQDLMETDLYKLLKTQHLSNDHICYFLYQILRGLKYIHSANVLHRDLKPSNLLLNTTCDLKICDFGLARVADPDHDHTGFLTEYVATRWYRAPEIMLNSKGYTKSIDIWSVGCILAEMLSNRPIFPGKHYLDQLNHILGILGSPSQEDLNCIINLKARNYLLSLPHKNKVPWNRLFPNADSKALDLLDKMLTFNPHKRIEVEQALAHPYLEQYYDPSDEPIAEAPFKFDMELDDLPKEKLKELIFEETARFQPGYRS

[12] = Cytotoxicity against human PANC1 cells assessed as cell growth inhibition after 48 hrs by MTT assay; format: functional; details: PANC-1, 48 h
[13] = target: MAP kinase-interacting serine/threonine-protein kinase 2 (Homo sapiens) (UniProt Q9HBH9); assay: Inhibition of human MNK2 assessed as remaining enzyme activity at 50 uM after 30 mins by 33P-ATP filter-binding assay
MDA-MB-231 = assay: Cytotoxicity against human MDA-MB-231 cells assessed as cell growth inhibition after 48 hrs by MTT assay; format: functional; details: MDA-MB-231, 48 h
[14] = Cell cycle arrest in human HL60 cells assessed as accumulation at S phase at 10 uM (reference value: 36 %); format: functional, cell-based; details: HL-60
[15] = Cell cycle arrest in human HL60 cells assessed as accumulation at G2 phase at 5 uM (reference value: 5 %); format: functional, cell-based; details: HL-60
[16] = target: Testis-specific serine/threonine-protein kinase 1 (Homo sapiens) (UniProt Q9BXA7); assay: Inhibition of human TSSK1 (1 to 367 residues) assessed as remaining enzyme activity at 50 uM after 30 mins by 33P-ATP filter-binding assay
[17] = target: Mitogen-activated protein kinase 9 (Homo sapiens) (UniProt P45984); assay: Inhibition of human JNK2 (1 to 424 residues) assessed as remaining enzyme activity at 50 uM after 30 mins by 33P-ATP filter-binding assay
[18] = target: Mitogen-activated protein kinase 13 (Homo sapiens) (UniProt O15264); assay: Inhibition of human p38delta MAPK (1 to 365 residues) assessed as remaining enzyme activity at 50 uM after 30 mins by 33P-ATP filter-binding assay
Mitogen-activated protein kinase 13 (Homo sapiens), sequence (O15264 whole entry, the tested form may be a part): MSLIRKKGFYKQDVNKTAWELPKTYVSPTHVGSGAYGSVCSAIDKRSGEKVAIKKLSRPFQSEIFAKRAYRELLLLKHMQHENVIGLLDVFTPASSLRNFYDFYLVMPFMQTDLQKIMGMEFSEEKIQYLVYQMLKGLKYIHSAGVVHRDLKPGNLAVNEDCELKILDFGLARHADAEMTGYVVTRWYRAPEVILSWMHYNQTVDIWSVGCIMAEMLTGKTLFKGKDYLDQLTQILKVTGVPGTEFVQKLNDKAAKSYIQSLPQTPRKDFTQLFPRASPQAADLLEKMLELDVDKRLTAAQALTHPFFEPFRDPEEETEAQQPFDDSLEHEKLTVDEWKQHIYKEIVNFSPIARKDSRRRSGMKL

[19] = target: Inhibitor of nuclear factor kappa-B kinase subunit beta (Homo sapiens) (UniProt O14920); assay: Inhibition of human IKKb (1 to 736 residues) assessed as remaining enzyme activity at 50 uM after 30 mins by 33P-ATP filter-binding assay
[20] = target: Serine/threonine-protein kinase 26 (Homo sapiens) (UniProt Q9P289); assay: Inhibition of human MST4 (2 to 416 residues) assessed as remaining enzyme activity at 50 uM after 30 mins by 33P-ATP filter-binding assay
Serine/threonine-protein kinase 26 (Homo sapiens), sequence (Q9P289 2-416 limits assumed): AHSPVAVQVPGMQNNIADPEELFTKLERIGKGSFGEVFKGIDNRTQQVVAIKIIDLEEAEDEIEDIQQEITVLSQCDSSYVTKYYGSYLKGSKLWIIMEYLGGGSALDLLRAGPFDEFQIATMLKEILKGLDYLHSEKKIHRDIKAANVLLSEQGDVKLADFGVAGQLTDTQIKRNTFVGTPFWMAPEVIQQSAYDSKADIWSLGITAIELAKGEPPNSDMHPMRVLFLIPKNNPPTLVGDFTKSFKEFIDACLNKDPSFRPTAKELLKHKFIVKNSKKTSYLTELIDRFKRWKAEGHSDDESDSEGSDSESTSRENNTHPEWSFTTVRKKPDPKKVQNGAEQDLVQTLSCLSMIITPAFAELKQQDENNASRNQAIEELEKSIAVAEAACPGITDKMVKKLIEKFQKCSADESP

[21] = target: Dual specificity testis-specific protein kinase 1 (Homo sapiens) (UniProt Q15569); assay: Inhibition of human TESK1 (1 to 345 residues) assessed as remaining enzyme activity at 50 uM after 30 mins by 33P-ATP filter-binding assay
[22] = target: Dual specificity protein kinase CLK2 (Homo sapiens) (UniProt P49760); assay: Inhibition of human CLK2 (138 to 499 residues) assessed as remaining enzyme activity at 50 uM after 30 mins by 33P-ATP filter-binding assay
[23] = target: Mitogen-activated protein kinase kinase kinase 1 (Homo sapiens) (UniProt Q13233); assay: Inhibition of human MEKK1 (877 to1563 residues) assessed as remaining enzyme activity at 50 uM after 30 mins by 33P-ATP filter-binding assay
[24] = target: Ephrin type-B receptor 4 (Homo sapiens) (UniProt P54760); assay: Inhibition of human EPHB4 (561 to 997 residues) assessed as remaining enzyme activity at 50 uM after 30 mins by 33P-ATP filter-binding assay
Ephrin type-B receptor 4 (Homo sapiens), sequence (P54760 whole entry, the tested form may be a part): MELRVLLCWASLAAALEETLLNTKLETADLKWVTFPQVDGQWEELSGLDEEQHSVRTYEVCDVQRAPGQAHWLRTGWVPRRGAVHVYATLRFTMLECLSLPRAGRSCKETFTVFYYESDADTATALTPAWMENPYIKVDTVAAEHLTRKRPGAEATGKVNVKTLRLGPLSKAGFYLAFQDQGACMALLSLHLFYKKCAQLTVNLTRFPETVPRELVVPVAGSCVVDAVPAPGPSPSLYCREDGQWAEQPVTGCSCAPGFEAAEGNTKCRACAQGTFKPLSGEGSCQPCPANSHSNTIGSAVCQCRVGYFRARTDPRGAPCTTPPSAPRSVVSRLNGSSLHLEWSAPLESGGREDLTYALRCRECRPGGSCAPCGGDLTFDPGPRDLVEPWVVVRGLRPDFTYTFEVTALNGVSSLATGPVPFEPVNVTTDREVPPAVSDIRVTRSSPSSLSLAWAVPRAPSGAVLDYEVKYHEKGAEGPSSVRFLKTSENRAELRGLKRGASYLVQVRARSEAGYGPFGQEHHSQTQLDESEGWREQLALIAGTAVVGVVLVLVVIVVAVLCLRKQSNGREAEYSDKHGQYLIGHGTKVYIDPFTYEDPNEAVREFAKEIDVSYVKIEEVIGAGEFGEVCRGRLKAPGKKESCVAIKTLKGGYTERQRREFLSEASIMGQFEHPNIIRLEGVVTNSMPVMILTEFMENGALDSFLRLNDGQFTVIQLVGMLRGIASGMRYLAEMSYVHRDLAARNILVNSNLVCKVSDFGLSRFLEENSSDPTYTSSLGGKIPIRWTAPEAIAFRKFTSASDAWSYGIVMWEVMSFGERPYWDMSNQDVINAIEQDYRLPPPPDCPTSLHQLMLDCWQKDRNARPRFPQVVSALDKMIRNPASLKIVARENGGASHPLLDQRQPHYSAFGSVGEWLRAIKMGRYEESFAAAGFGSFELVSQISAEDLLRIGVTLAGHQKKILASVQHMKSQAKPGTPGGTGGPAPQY

[25] = target: Receptor-interacting serine/threonine-protein kinase 2 (Homo sapiens) (UniProt O43353); assay: Inhibition of human RIPK2 (2 to 311 residues) assessed as remaining enzyme activity at 50 uM after 30 mins by 33P-ATP filter-binding assay
[26] = target: Casein kinase I isoform gamma-2 (Homo sapiens) (UniProt P78368); assay: Inhibition of human CK1gamma2 (1 to 415 residues) assessed as remaining enzyme activity at 50 uM after 30 mins by 33P-ATP filter-binding assay
Casein kinase I isoform gamma-2 (Homo sapiens), sequence (P78368 whole entry, looked up, the tested form may be a part, canonical isoform): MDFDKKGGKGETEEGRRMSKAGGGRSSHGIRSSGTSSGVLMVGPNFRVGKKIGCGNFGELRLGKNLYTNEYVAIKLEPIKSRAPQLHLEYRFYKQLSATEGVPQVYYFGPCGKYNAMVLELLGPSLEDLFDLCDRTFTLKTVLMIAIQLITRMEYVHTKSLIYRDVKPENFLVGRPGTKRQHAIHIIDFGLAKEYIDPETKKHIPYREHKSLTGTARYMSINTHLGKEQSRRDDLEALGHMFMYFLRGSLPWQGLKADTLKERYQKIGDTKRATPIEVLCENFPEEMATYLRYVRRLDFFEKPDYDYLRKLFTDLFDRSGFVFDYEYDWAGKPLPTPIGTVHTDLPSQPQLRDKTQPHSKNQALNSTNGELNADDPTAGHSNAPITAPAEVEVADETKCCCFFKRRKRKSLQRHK

U-251 = assay: Cytotoxicity against human U251 cells assessed as cell growth inhibition after 48 hrs by MTT assay; format: functional; details: U-251, 48 h
[27] = target: Dual specificity tyrosine-phosphorylation-regulated kinase 3 (Homo sapiens) (UniProt O43781); assay: Inhibition of human DYRK3 (1 to 588 residues) assessed as remaining enzyme activity at 50 uM after 30 mins by 33P-ATP filter-binding assay

Cc1cc(=O)c2c(O)cc(O)c([C@H]3CCN(C)C[C@H]3O)c2o1 [ROHITUKINE]
Activity [1]: 28% | Activity [2]: 91% | Activity [3]: 72% | Activity [4]: 89% | Stability [5]: Stable | Activity [6]: 39% | Activity (MAP3K9): 47% | GI50 [7]: 10 µM | Activity [8]: 88% | Activity [9]: 84% | Activity [10]: 79% | Activity [11]: 90% | GI50 [12]: 22 µM | Activity [13]: 49% | GI50 (MDA-MB-231): 13 µM | Activity [14]: 48% | Activity [15]: 11% | Activity [16]: 81% | Activity [17]: 107% | Activity [18]: 16% | Activity [19]: 83% | Activity [20]: 68% | Activity [21]: 88% | Activity [22]: 45% | Activity [23]: 83% | Activity [24]: 84% | Activity [25]: 63% | Activity [26]: 92% | GI50 (U-251): 32 µM | Activity [27]: 77%
